# Laboratory results: paper PMC6540056, “A Thermostable Aspergillus fumigatus GH7 Endoglucanase Over-Expressed in Pichia pastoris Stimulates Lignocellulosic Biomass Hydrolysis” (International Journal of Molecular Sciences, 2019)
# Target: T1, Af-EGL7 (Aspergillus fumigatus, UniProt Q4WCM9)
# T1 construct: gene AFUA_6G01800; ORF without predicted signal peptide in pPICZalphaA, alpha-factor secretion signal, C-terminal vector tag with His6 kept, from Pichia pastoris X-33, N-glycosylated, about 70 kDa on SDS-PAGE; forward primer encodes EF-QQPAA at N-terminus
# T1 sequence (Q4WCM9 21-460): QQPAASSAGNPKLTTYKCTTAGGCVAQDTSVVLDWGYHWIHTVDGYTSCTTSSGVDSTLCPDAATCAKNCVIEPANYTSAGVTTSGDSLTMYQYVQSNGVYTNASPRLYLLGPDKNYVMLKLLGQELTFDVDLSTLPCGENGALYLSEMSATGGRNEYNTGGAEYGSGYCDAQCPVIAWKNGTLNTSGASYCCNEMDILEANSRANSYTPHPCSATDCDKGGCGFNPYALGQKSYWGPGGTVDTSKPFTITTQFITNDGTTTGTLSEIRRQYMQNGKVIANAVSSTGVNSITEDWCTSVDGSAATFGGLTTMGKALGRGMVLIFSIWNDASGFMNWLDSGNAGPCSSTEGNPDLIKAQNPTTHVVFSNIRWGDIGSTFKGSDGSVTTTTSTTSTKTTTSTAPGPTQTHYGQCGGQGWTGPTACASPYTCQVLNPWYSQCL
# Experiment: colorimetric, Azo-Xyloglucan hydrolysis, […] nm
# Assay type: biochemical
# Settings: read-out: % inhibition at 50 mM
smiles,measurement,value
OC[C@H]1O[C@@H](O[C@H]2[C@H](O)[C@@H](O)C(O)O[C@@H]2CO)[C@H](O)[C@@H](O)[C@@H]1O (stereo partly shown) [cellobiose],inhibition at 50000 µM,35%
